Laboratory results: patent US5089513A, “5-lipoxygenase inhibitory thiazoles” (ICI Pharma, priority 1988, dated 1992)
pIC50: −log10 of the molar value.

How the values were obtained:
[1] = target: T1, 5-LO (Cavia porcellus, UniProt A0A286X958); test: Test a) in vitro spectrophotometric cell free enzyme assay using 5-LO isolated from guinea pig neutrophils; type: biochemical
T1 construct: 5-LO isolated from guinea pig neutrophils; endogenous in cells; host or cells: guinea pig neutrophils (enzyme isolated, soluble, cell-free)
T1 sequence (A0A286X958 1-674): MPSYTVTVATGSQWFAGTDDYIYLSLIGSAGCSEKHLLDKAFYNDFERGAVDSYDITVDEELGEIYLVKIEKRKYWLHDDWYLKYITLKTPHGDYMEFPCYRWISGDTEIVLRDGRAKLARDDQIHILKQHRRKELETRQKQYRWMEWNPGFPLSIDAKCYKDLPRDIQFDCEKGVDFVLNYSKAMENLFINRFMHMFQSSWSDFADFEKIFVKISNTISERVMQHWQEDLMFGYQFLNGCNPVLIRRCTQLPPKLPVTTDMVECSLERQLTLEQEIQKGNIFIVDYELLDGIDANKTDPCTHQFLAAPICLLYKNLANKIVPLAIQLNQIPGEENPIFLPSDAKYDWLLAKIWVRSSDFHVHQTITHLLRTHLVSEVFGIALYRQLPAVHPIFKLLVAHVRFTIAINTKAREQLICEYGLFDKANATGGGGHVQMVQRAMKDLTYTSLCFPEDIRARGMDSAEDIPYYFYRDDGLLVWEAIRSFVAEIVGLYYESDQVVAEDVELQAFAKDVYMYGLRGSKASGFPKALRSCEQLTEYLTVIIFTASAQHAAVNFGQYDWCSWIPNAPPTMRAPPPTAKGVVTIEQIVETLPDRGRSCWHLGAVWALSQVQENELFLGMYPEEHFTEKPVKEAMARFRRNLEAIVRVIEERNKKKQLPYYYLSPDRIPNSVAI
From the text: a) An in vitro spectrophotometric enzyme assay system, which assesses the inhibitory properties of a test compound in a cell free system using 5-LO isolated from guinea pig neutrophils and as described by D.Aharony and R. L. Stein (J. Biol. Chem., 1986, 261(25), 11512-11519). This test provides a measure of the intrinsic inhibitory properties against soluble 5-LO in an extracellular environment.

[2] = target: T2, 5-LO (Rattus norvegicus, UniProt P12527); test: Test c) ex vivo assay, blood collected after oral administration, A23187 challenge, LTB4 radioimmunoassay; type: in vivo
T2 construct: blood collection, heparinisation, challenge with A23187 and radioimmunoassay of LTB4 and TxB2; endogenous in cells
T2 sequence (P12527 1-673): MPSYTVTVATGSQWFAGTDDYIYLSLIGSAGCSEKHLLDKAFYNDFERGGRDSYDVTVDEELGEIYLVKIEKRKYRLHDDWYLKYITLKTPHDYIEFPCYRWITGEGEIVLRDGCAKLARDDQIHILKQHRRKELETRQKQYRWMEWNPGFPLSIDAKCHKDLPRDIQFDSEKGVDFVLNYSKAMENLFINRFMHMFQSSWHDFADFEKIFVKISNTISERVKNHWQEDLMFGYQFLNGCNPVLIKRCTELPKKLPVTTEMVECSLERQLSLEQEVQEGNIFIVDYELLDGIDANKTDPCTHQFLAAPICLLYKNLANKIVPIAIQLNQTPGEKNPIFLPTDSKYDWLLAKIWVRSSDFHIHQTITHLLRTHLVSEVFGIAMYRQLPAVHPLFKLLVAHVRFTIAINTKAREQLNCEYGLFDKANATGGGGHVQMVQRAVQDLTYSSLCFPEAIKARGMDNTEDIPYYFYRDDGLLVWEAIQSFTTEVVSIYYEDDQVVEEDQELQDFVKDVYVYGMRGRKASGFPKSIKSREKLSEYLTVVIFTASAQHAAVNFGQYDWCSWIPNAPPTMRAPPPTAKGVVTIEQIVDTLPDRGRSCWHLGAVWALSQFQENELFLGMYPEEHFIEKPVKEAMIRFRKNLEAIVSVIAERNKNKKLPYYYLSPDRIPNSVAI

[3] = target: T3, cyclooxygenase (Homo sapiens, UniProt P23219); test: Test b) heparinised human blood challenged with A23187, TxB2 radioimmunoassay; type: cell-based
T3 construct: incubating a test compound with heparinised human blood; endogenous in cells; host or cells: blood cells (mainly platelets, own knowledge) in heparinised human whole blood
T3 sequence (P23219 24-599): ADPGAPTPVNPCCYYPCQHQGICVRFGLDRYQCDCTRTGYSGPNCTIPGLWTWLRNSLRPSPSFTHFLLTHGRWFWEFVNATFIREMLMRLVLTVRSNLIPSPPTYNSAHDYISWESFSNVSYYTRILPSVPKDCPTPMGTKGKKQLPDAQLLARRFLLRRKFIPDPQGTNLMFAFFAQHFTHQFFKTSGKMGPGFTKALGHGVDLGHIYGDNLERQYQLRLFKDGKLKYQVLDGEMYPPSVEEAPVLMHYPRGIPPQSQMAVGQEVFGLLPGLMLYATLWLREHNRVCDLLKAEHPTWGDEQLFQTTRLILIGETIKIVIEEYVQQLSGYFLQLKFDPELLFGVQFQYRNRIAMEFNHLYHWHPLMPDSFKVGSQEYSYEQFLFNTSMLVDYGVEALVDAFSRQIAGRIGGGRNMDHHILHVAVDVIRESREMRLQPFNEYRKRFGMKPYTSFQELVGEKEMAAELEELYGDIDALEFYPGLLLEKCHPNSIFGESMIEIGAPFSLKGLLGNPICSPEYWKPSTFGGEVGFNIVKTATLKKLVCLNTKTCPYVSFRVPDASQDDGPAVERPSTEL
Experimental: b) An in vitro assay system involving incubating a test compound with heparinised human blood, prior to challenge with the calcium ionophore A23187 and then indirectly measuring the inhibitory effects on 5-LO by assaying the amount of LTB4 using the specific radioimmunoassay described by Carey and Forder (F. Carey and R. A. Forder, Brit. J. Pharmacol. 1985, 84, 34P) which involves the use of a protein-LTB4 conjugate produced using the procedure of Young et alia (Prostaglandins, 1983, 26(4),605-613). The effects of a test compound on the enzyme cyclooxygenase (which is involved in the alternative metabolic pathway for arachidonic acid and gives rise to prostaglandins, thromboxanes and related metabolites) may be measured at the same time using the specific radioimmunoassay for thromboxane B2 (TxB2) described by Carey and Forder (see above). This test provides an indication of the effects of a test compound against 5-LO and also cyclooxygenase in the presence of blood cells and proteins. It permits the selectivity of the inhibitory effect on 5-LO or cyclooxygenase to be assessed.

[4] = target: T4, 5-LO (Homo sapiens, UniProt P09917); test: Test b) heparinised human blood challenged with A23187, LTB4 radioimmunoassay; type: cell-based
T4 construct: incubating a test compound with heparinised human blood; endogenous in cells; host or cells: leukocytes in heparinised human whole blood
T4 sequence (P09917 1-674): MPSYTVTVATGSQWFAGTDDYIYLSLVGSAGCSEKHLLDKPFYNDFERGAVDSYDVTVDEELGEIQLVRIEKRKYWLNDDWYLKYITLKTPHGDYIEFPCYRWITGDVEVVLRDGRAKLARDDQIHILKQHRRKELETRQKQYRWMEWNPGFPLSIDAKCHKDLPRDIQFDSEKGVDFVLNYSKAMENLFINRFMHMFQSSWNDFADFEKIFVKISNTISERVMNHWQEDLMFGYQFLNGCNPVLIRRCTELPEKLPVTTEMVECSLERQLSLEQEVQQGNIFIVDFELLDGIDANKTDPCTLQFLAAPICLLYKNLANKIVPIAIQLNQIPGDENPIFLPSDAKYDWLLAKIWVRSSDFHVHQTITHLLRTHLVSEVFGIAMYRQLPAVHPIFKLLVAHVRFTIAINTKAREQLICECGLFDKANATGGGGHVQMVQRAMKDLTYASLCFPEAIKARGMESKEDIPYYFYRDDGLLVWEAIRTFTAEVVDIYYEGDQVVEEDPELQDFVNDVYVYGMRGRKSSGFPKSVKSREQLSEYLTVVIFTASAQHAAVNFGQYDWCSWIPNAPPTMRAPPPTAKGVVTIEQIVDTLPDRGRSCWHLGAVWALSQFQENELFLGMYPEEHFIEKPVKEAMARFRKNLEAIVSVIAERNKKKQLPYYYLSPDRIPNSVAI
Experimental: b) An in vitro assay system involving incubating a test compound with heparinised human blood, prior to challenge with the calcium ionophore A23187 and then indirectly measuring the inhibitory effects on 5-LO by assaying the amount of LTB4 using the specific radioimmunoassay described by Carey and Forder (F. Carey and R. A. Forder, Brit. […] This test provides an indication of the effects of a test compound against 5-LO and also cyclooxygenase in the presence of blood cells and proteins. It permits the selectivity of the inhibitory effect on 5-LO or cyclooxygenase to be assessed.

pIC50 [1] | ED50 [2] [mg/kg] | pIC50 [3] | pIC50 [4] | SMILES
7.00 | 10 | < 4.00 |  | CCC(OC)(c1cccc(OCc2ccc3ccccc3c2)c1)c1nccs1 (centres unmarked) [2-[1-methoxy-1-[3-(naphth-2-ylmethoxy)phenyl]propyl]thiazole]
 | 10 |  | 7.40 | CCC(OC)(c1cccc(OCC#Cc2ccc(F)cc2)c1)c1nccs1 (centres unmarked) [2-[1-[3-(3-(4-fluorophenyl)prop-2-ynyloxy)phenyl]-1-methoxypropyl]thiazole]
